Test results taken from patent publication US20020028938A1, “Prostaglandin endoperoxide H synthase biosynthesis inhibitors” (priority 1997, published 2002).

| SMILES | melting point |
| --- | --- |
| CC(=O)CCOc1c(-c2ccc(S(C)(=O)=O)cc2)cnn(-c2ccc(F)cc2)c1=O [Example 468, 2-(4-Fluorophenyl)-4-(3-oxo-1-butoxy)-5-[4-(methylsulfonyl)phenyl]-3(2H)-pyridazinone] | 133 to 136 °C |
| CS(=O)(=O)c1ccc(-c2cnn(CC(F)(F)F)c(=O)c2NCCC#N)cc1 [Example 308, 2-(2,2,2-Trifluoroethyl)-4-(2-cyanoethylamino)-5-[4-(methylsulfonyl)phenyl]-3(2H)-pyridazinone] | 172 to 174 °C |
| CC(C)CCOc1c(-c2ccc(S(C)(=O)=O)cc2)cnn(-c2ccc(F)c(Cl)c2)c1=O [Example 538, 2-(3-Chloro-4-fluorophenyl)-4-(3-methyl-1-butoxy)-5-[4-(methylsulfonyl)phenyl]-3(2H)-pyridazinone] | 148 to 152 °C |
| CC(C)(O)CCOc1c(-c2ccc(S(C)(=O)=O)cc2)cnn(-c2cccc(C(F)(F)F)c2)c1=O [Example 544, 2-[3-(Trifluoromethyl)phenyl]-4-(3-hydroxy-3-methyl-1-butoxy)-5-[4-(methylsulfonyl)phenyl]-3(2H)-pyridazinone] | 90 to 93 °C |
| CC(C)CCOc1c(-c2ccc(S(C)(=O)=O)cc2)cnn(-c2ccc(Cl)c(Cl)c2)c1=O [Example 540, 2-(3,4-Dichlorophenyl)-4-(3-methyl-1-butoxy)-5-[4-(methylsulfonyl)phenyl]-3(2H)-pyridazinone] | 130 to 134 °C |
| CC(C)COc1c(-c2ccc(S(C)(=O)=O)cc2)cnn(-c2ccc(F)c(Cl)c2)c1=O [Example 537, 2-(3-Chloro-4-fluorophenyl)-4-(2-methyl-1-propoxy)-5-[4-(methylsulfonyl)phenyl]-3(2H)-pyridazinone] | 116 to 120 °C |
| CS(=O)(=O)c1ccc(-c2cnn(CC(F)(F)F)c(=O)c2NC2CCCC2)cc1 [Example 296, 2-(2,2,2-Trifluoroethyl)-4-(cyclopentylamino)-5-[4-(methylsulfonyl)phenyl]-3(2H)-pyridazinone] | 134 to 139 °C |
| C[C@H](O)CCOc1c(-c2ccc(S(C)(=O)=O)cc2)cnn(-c2ccc(F)c(F)c2)c1=O [Example 546, (S)-2-(3,4-Difluorophenyl)-4-(3-hydroxy-1-butoxy)-5-[4-(methylsulfonyl)phenyl]-3(2H)-pyridazinone] | 128 to 130 °C |
| CS(=O)(=O)c1ccc(-c2cnn(CC(F)(F)F)c(=O)c2N2CCCCC2)cc1 [Example 304, 2-(2,2,2-Trifluoroethyl)-4-(1-piperidinyl)-5-[4-(methylsulfonyl)phenyl]-3(2H)-pyridazinone] | 160 to 161 °C |
| NS(=O)(=O)c1ccc(-c2cnn(CC(F)(F)F)c(=O)c2Oc2ccc(F)cc2)cc1 [Example 71, 2-(2,2,2-Trifluoroethyl)-4-(4-fluorophenoxy)-5-[4-(aminosulfonyl)phenyl]-3(2H)-pyridazinone] | 150 to 152 °C |
| CS(=O)(=O)c1ccc(-c2cnn(CC(F)(F)F)c(=O)c2Oc2ccc(C#N)cc2)cc1 [Example 264, 2-(2,2,2-Trifluoroethyl)-4-(4-cyanophenoxy)-5-[4-(methylsulfonyl)phenyl]-3(2H)-pyridazinone] | 179 to 181 °C |
| CS(=O)(=O)c1ccc(-c2cnn(CC(F)(F)F)c(=O)c2Nc2cc(F)cc(F)c2F)cc1 [Example 315, 2-(2,2,2-Trifluoroethyl)-4-(2,3,5-trifluoroanilino)-5-[4-(methylsulfonyl)phenyl]-3(2H)-pyridazinone] | 190 to 194 °C |
| CS(=O)(=O)c1ccc(-c2cnn(CC(F)(F)F)c(=O)c2NCC2CC2)cc1 [Example 302, 2-(2,2,2-Trifluoroethyl)-4-(cyclopropylmethylamino)-5-[4-(methylsulfonyl)phenyl]-3(2H)-pyridazinone] | 145 to 146 °C |
| COc1c(-c2ccc(S(C)(=O)=O)cc2)cnn(-c2cccc(Cl)c2)c1=O [Example 331, 2-(3-Chlorophenyl)-4-methoxy-5-[4-(methylsulfonyl)phenyl]-3(2H)-pyridazinone] | 112 to 114 °C |
| C[C@@H](O)CNc1c(-c2ccc(S(C)(=O)=O)cc2)cnn(CC(F)(F)F)c1=O [Example 307, 2-(2,2,2-Trifluoroethyl)-4-(2R-hydroxylpropylamino)-5-[4-(methylsulfonyl)phenyl]3(2H)-pyridazinone] | 140 to 142 °C |
| CS(=O)(=O)c1ccc(-c2cnn(-c3ccc(F)c(F)c3)c(=O)c2OCCC2CCCC2)cc1 [Example 439, 2-(3,4-Difluorophenyl)-4-(2-cyclopentyl-1-ethoxy)-5-[4-(methylsulfonyl)phenyl]-3(2H)-pyridazinone] | 100 to 101 °C |
| CC(C)(O)CCOc1c(-c2ccc(S(C)(=O)=O)cc2)cnn(-c2ccc(F)c(Cl)c2)c1=O [Example 473, 2-(3-Chloro-4-fluorophenyl)-4-(3-hydroxy-3-methyl-1-butoxy)-5-[4-(methylsulfonyl)phenyl]-3(2H)-pyridazinone] | 108 to 110 °C |
| CS(=O)(=O)c1ccc(-c2cnn(-c3ccc(F)c(F)c3)c(=O)c2OCCCCO)cc1 [Example 541, 2-(3,4-Difluorophenyl)-4-(4-hydroxy-1-butoxy)-5-[4-(methylsulfonyl)phenyl]-3(2H)-pyridazinone] | 110 to 113 °C |
| CCOc1c(-c2ccc(S(C)(=O)=O)cc2)cnn(-c2ccc(F)c(F)c2)c1=O [Example 436, 2-(3,4-Difluorophenyl)-4-ethoxy-5-[4-(methylsulfonyl)phenyl]-3(2H)-pyridazinone] | 121 to 123 °C |
| CC(CCOc1c(-c2ccc(S(C)(=O)=O)cc2)cnn(-c2ccc(F)c(F)c2)c1=O)C(F)(F)F (centres unmarked) [Example 435, 2-(3,4-Difluorophenyl)-4-(3-trifluoromethyl-1-butoxy)-5-[4-(methylsulfonyl)phenyl]-3(2H)-pyridazinone] | 126 to 128 °C |
| CSc1ccc(-c2cnn(-c3ccc(F)cc3)c(=O)c2OC(C)C)cc1 [Example 199, 2-(4-Fluorophenyl)-4-(2-propoxy)-5-[4-(methylthio)phenyl]-3(2H)-pyridazinone] | 135 to 137 °C |

Further lines, results first:

| melting point | SMILES |
| --- | --- |
| 110 to 116 °C | CS(=O)(=O)c1ccc(-c2cnn(-c3ccc([N+](=O)[O-])cc3)c(=O)c2-c2ccc(F)cc2)cc1 [Example 157, 2-(4-Nitrophenyl)-4-(4-fluorophenyl)-5-[4-(methylsulfonyl)phenyl]-3(2H)-pyridazinone] |
| 108 to 111 °C | CS(=O)(=O)c1ccc(-c2cnn(CC(F)(F)F)c(=O)c2SCc2ccccc2)cc1 [Example 285, 2-(2,2,2-Trifluoroethyl)-4-phenylmethylthio-5-[4-(methylsulfonyl)phenyl]-3(2H)-pyridazinone] |
| 234 to 236 °C | CS(=O)(=O)c1ccc(-c2cnn(-c3ccccc3C=O)c(=O)c2-c2ccc(F)cc2)cc1 [Example 163, 2-(2-Formylphenyl)-4-(4-fluorophenyl)-5-[4-(methylsulfonyl)phenyl]-3(2H)-pyridazinone] |
| 237 to 239 °C | CS(=O)(=O)c1ccc(-c2cnn(CC(F)(F)F)c(=O)c2-c2ccc3c(c2)COC3=O)cc1 [Example 221, 2-(2,2,2-Trifluoroethyl)-4-(1-oxo-1,3-dihydro-2-benzofuran-5-yl)-5-[4-(methylsulfonyl)phenyl]-3(2H)-pyridazinone] |
| 50 to 70 °C | CC(C)(C)SCc1c(-c2ccc(S(C)(=O)=O)cc2)cnn(-c2ccc(F)cc2)c1=O [Example 197, 2-(4-Fluorophenyl)-4-(t-butylthiomethyl)-5-[4-(methylsulfonyl)phenyl]-3(2H)-pyridazinone] |
| 182 to 184 °C | CS(=O)(=O)c1ccc(-c2cnn(Cc3ccccn3)c(=O)c2-c2ccc(F)cc2)cc1 [Example 27, 2-(2-Pyridylmethyl)-4-(4-fluorophenyl)-5-[4-(methylsulfonyl)phenyl]-3(2H)-pyridazinone] |
| 166 to 168 °C | CS(=O)(=O)c1ccc(-c2cnn(-c3ccc(F)c(F)c3)c(=O)c2Cc2ccccc2)cc1 [Example 233, 2-(3,4-Difluorophenyl)-4-benzyl-5-[4-(methylsulfonyl)phenyl]-3(2H)-pyridazinone] |
| 50 to 70 °C | CS(=O)(=O)c1ccc(-c2cnn(-c3cccc(Cl)c3)c(=O)c2COC(=O)c2ccccc2)cc1 [Example 208, 2-(3-Chlorophenyl)-4-(benzoyloxymethyl)-5-[4-(methylsulfonyl)phenyl]-3(2H)-pyridazinone] |
| 245 to 248 °C | Cc1ccc(-c2c(-c3ccc(S(C)(=O)=O)cc3)cnn(-c3ccc(F)cc3)c2=O)cc1F [Example 250, 2-(4-Fluorophenyl)-4-(3-fluoro-4-methylphenyl)-5-[4-(methylsulfonyl)phenyl]-3(2H)-pyridazinone] |
| 170 to 171 °C | CS(=O)(=O)c1ccc(-c2cnn(CCc3ccccc3)c(=O)c2-c2ccc(F)cc2)cc1 [Example 51, 2-Phenethyl-4-(4-fluorophenyl)-5-[4-(methylsulfonyl)phenyl]-3(2H)-pyridazinone] |
| 102 to 103 °C | CC(C)CCC(C)Oc1c(-c2ccc(S(C)(=O)=O)cc2)cnn(-c2ccc(F)cc2)c1=O (centres unmarked) [Example 429, 2-(4-Fluorophenyl)-4-(5-methyl-2-hexyloxy)-5-[4-(methylsulfonyl)phenyl]-3(2H)-pyridazinone] |
| 190 to 192 °C | Cc1ccc(-n2ncc(-c3ccc(S(C)(=O)=O)cc3)c(-c3ccc(F)cc3)c2=O)cc1 [Example 177, 2-(4-Methylphenyl)-4-(4-fluorophenyl)-5-[4-(methylsulfonyl)phenyl]-3(2H)-pyridazinone] |
| 168 to 170 °C | CC(C)(C)C(=O)Cn1ncc(-c2ccc(S(C)(=O)=O)cc2)c(-c2ccc(F)cc2)c1=O [Example 59, 2-(3,3-Dimethyl-2-oxobutyl)-4-(4-fluorophenyl)-5-[4-(methylsulfonyl)phenyl]-3(2H)-pyridazinone] |
| 196 to 199 °C | CS(=O)(=O)c1ccc(-c2cnn(-c3ccc(F)c(F)c3)c(=O)c2Oc2ccc(Br)cc2)cc1 [Example 282, 2-(3,4-Difluorophenyl)-4-(4-bromophenoxy)-5-[4-(methylsulfonyl)phenyl]-3(2H)-pyridazinone] |
